Results as given in paper PMC7891696, “The molecular targets of ivermectin and lotilaner in the human louse Pediculus humanus humanus: New prospects for the treatment of pediculosis” (PLoS Pathogens, 2021).
Read-outs that look alike come from different tables or passages of the source.

Experiments:
[1] = molecular target: T1, Phh-RDL (Pediculus humanus humanus, UniProt A0A894T8E6); assay: Two-electrode voltage-clamp on Xenopus laevis oocytes expressing Phh-RDL; assay type: cell-based; conditions: for concentration at which GABA-elicited currents were completely inhibited: 100 μM GABA
T1 sequence (A0A894T8E6 entry or part of it): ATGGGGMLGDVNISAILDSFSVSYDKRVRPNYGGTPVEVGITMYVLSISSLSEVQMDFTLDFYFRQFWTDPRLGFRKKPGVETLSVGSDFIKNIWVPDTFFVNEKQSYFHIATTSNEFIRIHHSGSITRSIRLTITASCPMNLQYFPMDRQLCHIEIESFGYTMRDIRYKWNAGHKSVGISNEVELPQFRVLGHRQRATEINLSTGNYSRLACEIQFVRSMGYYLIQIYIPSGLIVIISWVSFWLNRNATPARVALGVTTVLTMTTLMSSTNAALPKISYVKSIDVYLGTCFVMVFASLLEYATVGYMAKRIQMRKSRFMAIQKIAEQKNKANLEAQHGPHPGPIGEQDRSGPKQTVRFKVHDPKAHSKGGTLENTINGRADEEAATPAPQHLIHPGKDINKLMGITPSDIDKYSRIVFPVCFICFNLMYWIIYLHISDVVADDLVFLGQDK
Description: (§1) Defolliculated Xenopus laevis oocytes were purchased from Ecocyte Bioscience and maintained in incubation solution (100 mM NaCl, 2 mM KCl, 1.8 mM CaCl2.2H2O, 1 mM MgCl2.6H2O, 5 mM HEPES, 2.5 mM C3H3NaO3, pH 7.5 supplemented with penicillin 100 U/mL and streptomycin 100 μg/mL) at 19°C. Each oocyte was microinjected with 57 ng of cRNA encoding Phh-GluCl or Phh-RDL using a Drummond nanoject II microinjector. Three to five days after cRNA injection, two-electrode voltage-clamp recordings were performed with an oocyte clamp OC-725C amplifier (Warner instrument) at a holding potential of -80mV or -60 mV to assess the expression of the GluCl or RDL channels. Currents were recorded and analyzed using the pCLAMP 10.4 package (Molecular Devices). Concentration-response relationships for agonists were carried out by challenging oocytes with 10 s applications of increasing concentrations of compounds. […] For Phh-GluCl, the dose-response relationship for ivermectin was performed by applying each concentration of ivermectin for 20–30 s. Each oocyte received only one ivermectin concentration (≤ 30 nM) followed with a high ivermectin concentration (≥ 100 nM). Data were normalized to a first 100 μM glutamate apllication. […] Concentration-response curves for agonists were fitted with the following equation: Y=100/1+10^H(logEC50−X)
Where Y is the normalized response, H is the Hill slope and X is the logarithm of concentration. The same equation was used for the concentration-response curves for antagonists by replacing logEC50 by logIC50. Results are expressed as mean +/- SEM and statistical analysis were performed using One-Way ANOVA with Tukey’s Multiple Comparisons Test. […] The corresponding concentration response curves were fitted using the following four parameter Hill equation: Y=Bottom+(Top−Bottom)/1+10^H(LogEC50−X)

[2] = test system: human adult body lice (Pediculus humanus humanus); assay: Toxicity bioassay on adult human body lice (filter paper contact, survival and immobilization); assay type: in vivo; conditions: for lice killed or immobilized (death or knockdown rate): adult lice n = 44
Description: (§2) The colony of human body lice (Pediculus humanus humanus) were provided by Kosta Y. Mumcuoglu from the Kuvin Center for the Study of Infectious and Tropical Diseases, Hebrew University-Hadassah Medical School, Jerusalem, Israel. This laboratory-reared colony adapted to rabbit blood were fed four times per week for 20–30 min on rabbits and maintained at 30 ± 1°C and 60–70% relative humidity without exposure to any drugs. […] Nits (50 to 190 per condition) were incubated with lotilaner or ivermectin and hatching was monitored between six and nine days. Water and solution of 1% DMSO were used as negative controls. Pictures were recorded with a Motic Digital Microscope 143 Series and the Motic Image Plus 3.0 software.

[3] = molecular target: Phh-GluCl (Pediculus humanus humanus, UniProt A0A894TL71); assay: Two-electrode voltage-clamp on Xenopus laevis oocytes expressing Phh-GluCl; assay type: cell-based
Phh-GluCl, sequence (A0A894TL71 entry or part of it): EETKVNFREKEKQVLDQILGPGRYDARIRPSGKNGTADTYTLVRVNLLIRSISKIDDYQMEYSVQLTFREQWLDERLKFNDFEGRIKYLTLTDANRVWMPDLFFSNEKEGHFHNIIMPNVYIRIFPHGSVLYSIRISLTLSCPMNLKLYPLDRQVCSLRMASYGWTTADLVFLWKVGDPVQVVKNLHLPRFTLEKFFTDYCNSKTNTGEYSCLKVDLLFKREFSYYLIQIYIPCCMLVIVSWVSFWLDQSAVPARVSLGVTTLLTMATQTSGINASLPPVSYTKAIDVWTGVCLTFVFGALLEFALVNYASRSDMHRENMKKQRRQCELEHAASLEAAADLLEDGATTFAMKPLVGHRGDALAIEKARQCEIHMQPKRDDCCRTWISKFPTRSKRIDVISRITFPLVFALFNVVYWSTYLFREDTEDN
Description: as §1

[4] = test system: nits of human body lice; assay: Nit hatching test; assay type: in vivo, Pediculus humanus humanus; conditions: 100 μM, hatching between six and nine days after application, compared with water and 1% DMSO
Description: as §2

[5] = molecular target: T1, Phh-RDL; assay: Two-electrode voltage-clamp on Xenopus laevis oocytes expressing Phh-RDL; assay type: cell-based; conditions: 1 μM ivermectin, 90 s application
[6] = antagonism of 100 μM GABA current, 90 s preincubation, read-out: IC50

Compound: NCCCC(=O)O [GABA, γ-aminobutyric acid]
- EC50 [1]: 16000 nM
- Hill coefficient ([1]; GABA concentration-response curve): 2.3 +/- 0.1
- Emax ([1]; read-out: maximum current amplitude): 97.95 ± 0.69%

Compound: N#Cc1nn(-c2c(Cl)cc(C(F)(F)F)cc2Cl)c(N)c1[S+]([O-])C(F)(F)F (stereo not drawn) [fipronil]
- IC50 [1]: 138 ± 35.1 nM
- agonist effect [1]: no agonist effect
- lice killed or immobilized (death or knockdown rate) ([2]; 100 μM, 24 h): 91%

Compound: N[C@@H](CCC(=O)O)C(=O)O [glutamate]
- EC50 [3]: 9300 nM
- Hill coefficient ([3]; glutamate concentration-response curve): 1.9 +/- 0.5

Compound: Cc1cc(C2=NO[C@@](c3cc(Cl)c(Cl)c(Cl)c3)(C(F)(F)F)C2)sc1C(=O)NCC(=O)NCC(F)(F)F [lotilaner]
- agonist effect [1]: no agonist effect
- type of inhibition ([1]; competitive assay, GABA dose-response with 1 nM and 10 nM lotilaner): non-competitive antagonist
- IC50 ([1]; read-out: IC50): 40.7 nM
- lice killed ([2]; 1 μM, 24 h, adult lice): 14%
- death rate of lice ([2]; 100 μM, 3 h, adult lice): death of all lice
- effect on nit hatching [4]: absence of efficacy
- concentration without effect on Phh-GluCl (30 μM) as multiple of the IC50 for Phh-RDL ([3]; 30 μM): 737 fold
- agonist effect (current elicited) ([3]; 1 to 30 μM): did not elicit any current
- inhibitory effect on glutamate-evoked currents ([3]; 1 to 30 μM, co-application with 100 μM glutamate): no significant inhibitory effect

Compound: ivermectin
- IC50 on RDL receptor relative to EC50 for Phh-GluCl [1]: 4 fold
- effect on GABA current at low concentration (potentiation) ([1]; 100 nM ivermectin coapplied with 3 μM GABA): increased the current amplitude
- mode of action at higher concentration ([1]; 1 μM ivermectin): both an agonistic and antagonistic effect
- concentration at which GABA-elicited currents were completely inhibited [1]: 3 µM
- reversibility of the currents elicited ([1]; 0.3 to 30 μM, 90 seconds): not reversible
- IC50 [1, 6]: 342 ± 14 nM
- death rate of lice ([2]; 10 μM, 24 h, adult lice): 100%
- death rate of lice ([2]; 100 μM, 3 h, adult lice): 30%
- lice killed or immobilized (death or knockdown rate) ([2]; 100 μM, 24 h): 100%
- effect on nit hatching [4]: absence of efficacy
- maximum agonist effect as % of the 1 mM response [5]: 7.9 +/- 1.3%
- lowest concentration at which slow activation of the receptor was observed [3]: 10 nM
- reversibility of the agonist effect [3]: not reversible
- current as % of the 1 mM glutamate-elicited current ([3]; 1 μM ivermectin): 86.5 +/- 8.2%
- EC50 ([3]; agonist, normalized to a first 100 μM glutamate application, read-out: EC50): 78.5 ± 30.2 nM

Compound: picrotoxin
- agonist effect [1]: no agonist effect
- concentration at which GABA-elicited currents were completely inhibited [1]: 30 µM
- IC50 [1, 6]: 1160 ± 230 nM
- lice killed or immobilized (death or knockdown rate) ([2]; 100 μM, 24 h): not efficient to kill the lice
